Assay results reported in patent publication US7833685B2, “Coloring compound and yellow toner containing the coloring compound” (Canon Kabushiki Kaisha, priority 2006, dated 2010).

Legend:
[1] = Evaluation of coloring compound for its solubility in a styrene monomer; assay type: physicochemical; details: in a styrene monomer at 25° C.
Description: <Evaluation of Coloring Compound for its Solubility>
A coloring compound was tested for its solubility in a styrene monomer at a temperature of 25° C. of dissolution.
The coloring compound was judged to have sufficient solubility when the percentage by which the coloring compound dissolved in the styrene monomer was 1 mass % or more.

[2] = Evaluation of coloring compound for lightfastness (sun tester irradiation, color difference ΔE); assay type: physicochemical; details: ΔE after sun tester irradiation, 765 w/m^2, 50° C., 20 hours, on CLC color copy paper
Description: <Evaluation of Coloring Compound for Lightfastness>
A coloring compound was dissolved in a mixed liquid prepared by mixing tetrahydrofuran and cyclohexanone at a volume ratio of 1:1, whereby a 0.04-mol/l coloring compound solution was prepared. The coloring compound solution was filtrated through a filter (pore diameter: 0.2 μm). The coloring compound solution after the filtration was applied to CLC color copy paper (manufactured by Canon Inc.) by a bar coat method (Bar No. 3), and the resultant test paper was dried with air for one whole day and night. Next, the test paper was tested by being irradiated with light from a sun tester (XF-180CPS, manufactured by Shimadzu Corporation) at an illuminance of 765 w/m^2 and a temperature of 50° C. for an irradiation time of 20 hours. The test paper was analyzed with a spectrophotometer (SPECTROLINO, manufactured by Gretag Macbeth) before and after the irradiation test. The chromaticities (L*, a*, b*) of the test paper in an L*a*b* colorimetric system were measured before and after the irradiation test. A color difference (ΔE) was calculated from the following equation.
The coloring compound was evaluated for its lightfastness as described below. • A: ΔE is less than 15. • B: ΔE is 15 or more and less than 30. • C: ΔE is 30 or more.
The coloring compound was judged to have good lightfastness when ΔE was less than 30.

Structure (SMILES)	Solubility [1]	Lightfastness [2]
CCCCC(CC)CN(CC(CC)CCCC)C(=O)c1ccccc1/N=N/c1c(O)[nH]c(=O)c(C#N)c1C (centres unmarked) [D1]	A (The percentage by which the coloring compound dissolves in the styrene monomer is 10 mass % or more)	A (ΔE is less than 15)
CCCCC(CC)CN(CC(CC)CCCC)C(=O)c1ccccc1N=Nc1c(O)[nH]c(=O)c(C#N)c1-c1ccccc1 (centres unmarked) [D2]	A (The percentage by which the coloring compound dissolves in the styrene monomer is 10 mass % or more)	A (ΔE is less than 15)
CCCCCCN(CCCCCC)C(=O)c1ccccc1N=Nc1c(O)[nH]c(=O)c(C#N)c1C [D3]	A (The percentage by which the coloring compound dissolves in the styrene monomer is 10 mass % or more)	A (ΔE is less than 15)
CCCCCCCCCCCCN(CCCCCCCCCCCC)C(=O)c1ccccc1N=Nc1c(O)[nH]c(=O)c(C#N)c1C [D4]	A (The percentage by which the coloring compound dissolves in the styrene monomer is 10 mass % or more)	A (ΔE is less than 15)
CCCCCCCCCCCCN(CCCCCCCCCCCC)C(=O)c1cc(Cl)ccc1N=Nc1c(O)[nH]c(=O)c(C#N)c1C [D5]	A (The percentage by which the coloring compound dissolves in the styrene monomer is 10 mass % or more)	B (ΔE is 15 or more and less than 30)
CCCCc1c(N=Nc2ccc(C)cc2C(=O)OCC(CC)CCCC)c(O)[nH]c(=O)c1C#N (centres unmarked) [D6]	B (The percentage by which the coloring compound dissolves in the styrene monomer is 1 mass % or more and less than 10 mass %)	B (ΔE is 15 or more and less than 30)
CCCCC(CC)CN(CC(CC)CCCC)C(=O)c1ccccc1N=Nc1c(C)cc(=O)[nH]c1O (centres unmarked) [D7]	B (The percentage by which the coloring compound dissolves in the styrene monomer is 1 mass % or more and less than 10 mass %)	B (ΔE is 15 or more and less than 30)
CCCCCCCCc1ccc(OC(=O)c2ccccc2N=Nc2c(O)[nH]c(=O)c(C#N)c2C)cc1 [D8]	B (The percentage by which the coloring compound dissolves in the styrene monomer is 1 mass % or more and less than 10 mass %)	A (ΔE is less than 15)
CCCCc1c(N=Nc2ccc(OC)cc2C(=O)OC(c2ccccc2)c2ccccc2)c(O)[nH]c(=O)c1C#N [D10]	B (The percentage by which the coloring compound dissolves in the styrene monomer is 1 mass % or more and less than 10 mass %)	B (ΔE is 15 or more and less than 30)
Cc1c(N=Nc2ccccc2C(=O)N(Cc2ccccc2)Cc2ccccc2)c(O)[nH]c(=O)c1C#N [D11]	B (The percentage by which the coloring compound dissolves in the styrene monomer is 1 mass % or more and less than 10 mass %)	A (ΔE is less than 15)
Cc1c(N=Nc2ccccc2C(=O)N(c2ccccc2)c2ccccc2)c(O)[nH]c(=O)c1C#N [D12]	B (The percentage by which the coloring compound dissolves in the styrene monomer is 1 mass % or more and less than 10 mass %)	A (ΔE is less than 15)
CCCCC(CC)CN(CC(CC)CCCC)C(=O)c1ccccc1N=Nc1c(O)[nH]c(=O)c(C(N)=O)c1C (centres unmarked) [D14]	B (The percentage by which the coloring compound dissolves in the styrene monomer is 1 mass % or more and less than 10 mass %)	B (ΔE is 15 or more and less than 30)
CCCCc1c(N=Nc2ccccc2C(=O)NCC(CC)CCCC)c(O)[nH]c(=O)c1C#N (centres unmarked) [D15]	B (The percentage by which the coloring compound dissolves in the styrene monomer is 1 mass % or more and less than 10 mass %)	A (ΔE is less than 15)
CCCCc1c(N=Nc2ccccc2C(=O)N2CCC(CCC)CC2)c(O)[nH]c(=O)c1C#N [D16]	B (The percentage by which the coloring compound dissolves in the styrene monomer is 1 mass % or more and less than 10 mass %)	A (ΔE is less than 15)
CCCCc1ccc(N=Nc2c(O)[nH]c(=O)c(C#N)c2C)cc1 [E1, reference compound]	B (The percentage by which the coloring compound dissolves in the styrene monomer is 1 mass % or more and less than 10 mass %)	C (ΔE is 30 or more)
CCCCn1c(O)c(N=Nc2ccc(Cl)cc2)c(C)c(C#N)c1=O [E2, reference compound]	B (The percentage by which the coloring compound dissolves in the styrene monomer is 1 mass % or more and less than 10 mass %)	C (ΔE is 30 or more)
CCCCC(CC)CNS(=O)(=O)c1ccc(N=Nc2c(C)c(C#N)c(=O)n(CCCC)c2O)cc1 (centres unmarked) [E3, reference compound]	A (The percentage by which the coloring compound dissolves in the styrene monomer is 10 mass % or more)	C (ΔE is 30 or more)
Cc1c(N=Nc2ccc(N(C)C)cc2)c(O)n(CCCl)c(=O)c1C#N [E4, reference compound]	B (The percentage by which the coloring compound dissolves in the styrene monomer is 1 mass % or more and less than 10 mass %)	C (ΔE is 30 or more)
CCCCn1c(O)c(N=Nc2ccc(C(=O)OC)cc2)c(C)c(C#N)c1=O [E5, reference compound]	C (The percentage by which the coloring compound dissolves in the styrene monomer is less than 1 mass %)	C (ΔE is 30 or more)
CCCCC(CC)CN(CC(CC)CCCC)C(=O)c1ccc(N=Nc2c(C)c(C#N)c(=O)n(CC)c2O)cc1 (centres unmarked) [E6, reference compound]	A (The percentage by which the coloring compound dissolves in the styrene monomer is 10 mass % or more)	C (ΔE is 30 or more)
CCCCn1c(O)c(N=Nc2cccc(C)c2)c(C)c(C#N)c1=O [E7, reference compound]	B (The percentage by which the coloring compound dissolves in the styrene monomer is 1 mass % or more and less than 10 mass %)	C (ΔE is 30 or more)
CCCCn1c(O)c(N=Nc2ccccc2[N+](=O)[O-])c(C)c(C#N)c1=O [E8, reference compound]	C (The percentage by which the coloring compound dissolves in the styrene monomer is less than 1 mass %)	C (ΔE is 30 or more)
CCCCC(CC)CN(CC(CC)CCCC)C(=O)c1cccc(N=Nc2c(O)[nH]c(=O)c(C#N)c2C)c1 (centres unmarked) [E9, reference compound]	C (The percentage by which the coloring compound dissolves in the styrene monomer is less than 1 mass %)	A (ΔE is less than 15)
CCCCC(CC)CN(CC(CC)CCCC)C(=O)c1ccc(N=Nc2c(O)[nH]c(=O)c(C#N)c2C)cc1 (centres unmarked) [E10, reference compound]	A (The percentage by which the coloring compound dissolves in the styrene monomer is 10 mass % or more)	C (ΔE is 30 or more)
CCCCC(CC)CN(CC(CC)CCCC)C(=O)c1ccccc1N=Nc1c(C)c(C#N)c(=O)n(CC)c1O (centres unmarked) [E11, reference compound]	A (The percentage by which the coloring compound dissolves in the styrene monomer is 10 mass % or more)	C (ΔE is 30 or more)
